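Compound exposure: 48 hours, 5 concentrations, 96-well plates. At the GI50, growth is halved.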 Activity calls are given as the source filed them. Cut-off read from the data, not from the text of the source: active = GI50 up to about 1.1 µM and inactive = higher.
Tests used:
Test in all cases: DTP human tumour cell line panel, 48 h
[1] = tested on: TK-10
[2] = tested on: HCT-116
[3] = tested on: SF-539
[4] = tested on: SR
[5] = tested on: HT-29
[6] = tested on: RXF 631
[7] = tested on: HOP-92
[8] = tested on: HCT-15
[9] = tested on: Malme-3M
[10] = tested on: MOLT-4
[11] = tested on: K562
[12] = tested on: DLD-1
[13] = tested on: NCI-H23
[14] = tested on: CAKI-1
[15] = tested on: LXFL 529
[16] = tested on: DMS-114
[17] = tested on: U-251
[18] = tested on: KM-20L2
[19] = tested on: M19-MEL
[20] = tested on: A549
[21] = tested on: SN12C
[22] = tested on: OVCAR-5
[23] = tested on: NCI-H522
[24] = tested on: OVCAR-3
[25] = tested on: SNB-19
[26] = tested on: SK-MEL-28
[27] = tested on: CCRF-CEM
[28] = tested on: SNB-75
[29] = tested on: UACC-62
[30] = tested on: NCI-H460
[31] = tested on: SF-268
[32] = tested on: UACC-257
[33] = tested on: RXF 393
[34] = tested on: 786-0
[35] = tested on: A498
[36] = tested on: XF498
[37] = tested on: OVCAR-8
[38] = tested on: ACHN
[39] = tested on: EKVX
[40] = tested on: SF-295
[41] = tested on: SK-MEL-5
[42] = tested on: OVCAR-4
[43] = tested on: HOP-18
[44] = tested on: M14
[45] = tested on: SK-MEL-2
[46] = tested on: UO-31
[47] = tested on: SK-OV-3
[48] = tested on: HCC 2998
[49] = tested on: RPMI-8226
[50] = tested on: COLO 205
[51] = tested on: SNB-78
[52] = tested on: HL-60
[53] = tested on: KM12
[54] = tested on: IGROV-1
[55] = tested on: NCI-H226
[56] = tested on: HOP-62
[57] = tested on: DMS-273
[58] = tested on: LOX IMVI
[59] = tested on: SW-620
[60] = tested on: MDA-MB-231
[61] = tested on: MCF7
[62] = tested on: Hs-578T
[63] = tested on: NCI/ADR-RES
[64] = tested on: BT-549
[65] = tested on: MDA-N
[66] = tested on: DU-145
[67] = tested on: MDA-MB-435
[68] = tested on: PC-3

Measured: GI50

Nc1nncc2c1c(Br)cn2C1OC(CO)C(O)C1O (stereo not given)
4.23 µM: [8]
inactive: [1] 51.4 µM | [2] 9.68 µM | [3] 30.5 µM | [4] 2.99 µM | [5] 8.39 µM | [6] 2.84 µM | [7] 8.63 µM | [9] > 79.1 µM | [10] 2.91 µM | [11] 5.73 µM | [12] 4.82 µM | [13] 10.9 µM | [14] 3.21 µM | [15] 23.7 µM | [16] 9.35 µM | [17] > 70.6 µM | [18] 44 µM | [19] > 100 µM | [20] 31.7 µM | [21] 5.3 µM | [22] > 62.2 µM | [23] 31.3 µM | [24] 6.62 µM | [25] 64.3 µM | [26] > 100 µM | [27] 2.33 µM | [28] 13.7 µM | [29] 56.9 µM | [30] 28.8 µM | [31] 35.1 µM | [32] > 100 µM | [33] 30.8 µM | [34] 21.1 µM | [35] > 67.6 µM | [36] > 41.7 µM | [37] 1.49 µM | [38] 15.1 µM | [39] 25.6 µM | [40] 39.6 µM | [41] > 100 µM | [42] > 52.7 µM | [43] > 67.6 µM | [44] 23.9 µM | [45] > 40.8 µM | [46] > 37.9 µM | [47] > 96.6 µM | [48] 5.27 µM | [49] 10.2 µM | [50] 48.6 µM | [51] > 66.4 µM | [52] 3.73 µM | [53] 43.9 µM | [54] 25.1 µM | [55] > 100 µM | [56] 22 µM | [57] 7.23 µM | [58] 5.74 µM | [59] 5.69 µM

CC(=O)c1ccc(-c2ccc(C(C)=O)s2)s1
> 100 µM: [8]
inactive: [1] > 100 µM | [2] > 100 µM | [3] > 100 µM | [4] > 100 µM | [5] > 100 µM | [6] > 100 µM | [7] > 100 µM | [9] > 100 µM | [10] > 100 µM | [11] > 100 µM | [12] > 100 µM | [13] > 100 µM | [14] > 100 µM | [15] > 100 µM | [16] 1.43 µM | [17] > 100 µM | [18] > 100 µM | [19] > 100 µM | [20] > 100 µM | [21] > 100 µM | [22] > 100 µM | [23] > 100 µM | [24] > 100 µM | [25] > 100 µM | [26] 1.81 µM | [27] > 100 µM | [28] > 100 µM | [29] > 100 µM | [30] > 100 µM | [31] 1.87 µM | [32] > 100 µM | [33] > 100 µM | [34] > 100 µM | [35] 1.94 µM | [36] > 100 µM | [37] > 100 µM | [38] > 100 µM | [39] > 100 µM | [40] > 100 µM | [41] > 100 µM | [42] > 100 µM | [43] > 100 µM | [44] > 100 µM | [45] > 100 µM | [46] > 100 µM | [47] > 100 µM | [48] > 100 µM | [49] > 100 µM | [50] > 100 µM | [51] > 100 µM | [52] > 100 µM | [53] > 100 µM | [54] > 100 µM | [55] 19 µM | [56] > 100 µM | [57] > 100 µM | [58] > 100 µM | [59] > 100 µM

COCC(C#N)NC1CC(OC2CC(O)(C(=O)CO)Cc3c(O)c4c(c(O)c32)C(=O)c2c(OC)cccc2C4=O)OC(C)C1O (stereo not given)
active: [1] 0.19 µM | [2] 0.0385 µM | [3] 0.0415 µM | [4] < 0.0111 µM | [60] 0.112 µM | [5] 0.151 µM | [6] 0.0716 µM | [7] 0.393 µM | [9] 0.0344 µM | [61] < 0.01 µM | [10] < 0.0137 µM | [11] 0.0415 µM | [12] 0.2 µM | [13] 0.0592 µM | [14] 0.0388 µM | [15] 0.083 µM | [16] 0.0361 µM | [62] 0.161 µM | [17] 0.0286 µM | [18] 0.191 µM | [19] 0.0528 µM | [20] 0.0521 µM | [21] 0.0422 µM | [22] 0.247 µM | [23] 0.0321 µM | [24] 0.153 µM | [25] 0.0427 µM | [26] 0.156 µM | [27] 0.0202 µM | [64] 0.138 µM | [28] 0.0564 µM | [29] 0.0574 µM | [30] < 0.01 µM | [31] 0.0419 µM | [32] 0.091 µM | [33] 0.177 µM | [34] 0.0434 µM | [35] 0.0383 µM | [36] 0.0427 µM | [37] 0.0676 µM | [38] 0.0581 µM | [39] 0.5 µM | [65] 0.0975 µM | [66] 0.0412 µM | [67] 0.108 µM | [40] 0.0966 µM | [41] 0.0303 µM | [42] 0.282 µM | [43] 0.125 µM | [44] 0.134 µM | [45] 0.136 µM | [46] 0.442 µM | [47] 0.0869 µM | [48] 0.145 µM | [49] 0.0282 µM | [50] 0.0483 µM | [51] 0.235 µM | [52] 0.0193 µM | [68] 0.0942 µM | [53] 0.103 µM | [54] 0.0404 µM | [55] 0.0278 µM | [56] 0.0287 µM | [57] 0.0266 µM | [58] 0.0292 µM | [59] 0.033 µM
0.802 µM: [8]
inactive: [63] 1.82 µM

C=C[C@]1(C)CCC2=C(CCC3C2(C)CCC[C@]3(C)CO)C1 (stereo not given in full)
inactive: [1] > 100 µM | [2] 35.6 µM | [3] > 100 µM | [4] 26.8 µM | [5] 24.1 µM | [6] 51.1 µM | [7] 43.1 µM | [9] > 100 µM | [10] 24.3 µM | [11] 34.8 µM | [12] 50 µM | [13] 50.4 µM | [14] 76 µM | [15] 56.1 µM | [16] 31.2 µM | [17] 26.9 µM | [18] 20.2 µM | [19] 43.5 µM | [20] 40.6 µM | [21] 20.2 µM | [22] > 100 µM | [23] 23 µM | [24] 40 µM | [25] > 100 µM | [26] > 100 µM | [27] 33 µM | [28] 61.5 µM | [29] 76.9 µM | [30] 35.1 µM | [31] 33.4 µM | [32] 51.5 µM | [33] 25.8 µM | [34] 59.8 µM | [35] > 100 µM | [36] 52.6 µM | [37] 60.5 µM | [38] 69.2 µM | [39] 51.9 µM | [40] 43.6 µM | [41] 67.1 µM | [42] > 100 µM | [43] > 100 µM | [44] 75.5 µM | [45] 45.9 µM | [46] 74 µM | [47] > 100 µM | [48] 43.7 µM | [49] 27.2 µM | [50] 38.4 µM | [51] 79.4 µM | [52] 27.9 µM | [53] 38.4 µM | [54] > 100 µM | [55] 41.2 µM | [56] > 100 µM | [57] 41.8 µM | [58] 27.7 µM | [59] 63.8 µM
33 µM: [8]
